Among the data in the supplement of paper PMC10307832 are relative viability values, retold here.

What all share (assay): relative viability (nuclei count vs DMSO), 5 days (fraction); higher = more cells survive
Compound in test [1]: CN1CCN(CC1)C2=CC(=C(C=C2)NC3=NC(=C(S3)C(=O)C4=C(C=CC=C4Cl)Cl)N)OC [XMD14-99] + O=C(c1cc(Cc2n[nH]c(=O)c3ccccc23)ccc1F)N1CCN(C(=O)C2CC2)CC1 [Olaparib] (partner 8 µM)
The method, boiled down:
(§1)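 A single step with final 0.05% Triton X-100, 1% formaldehyde and 1 ug/ml Hoechst fixed the cells and stained nuclei 5 days after treatment. Lung cancer cell lines in 1536-well plates had been treated by pin tool the day after seeding with one drug alone or a fixed anchor-drug dose plus five library-drug doses (not always all listed) in √10 steps, and nuclei were counted on 4× images. Relative viability is the ratio of nuclei in treated wells to nuclei in vehicle wells, taken as the median of duplicate plates.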

Compound in test [2]: N[C@@H]1CCCN(c2c(/C=C3\SC(=O)NC3=O)cccc2-c2ccccc2)C1 [AZD1208] + Cc1nc(Nc2ncc(C(=O)Nc3c(C)cccc3Cl)s2)cc(N2CCN(CCO)CC2)n1 [Dasatinib] (partner 0.075 µM)
The essentials: as §1

Compound in test [3]: CN1CCN(CC1)C2=CC(=C(C=C2)NC3=NC(=C(S3)C(=O)C4=C(C=CC=C4Cl)Cl)N)OC [XMD14-99] + CS(=O)(=O)N1CCN(Cc2cc3nc(-c4cccc5[nH]ncc45)nc(N4CCOCC4)c3s2)CC1 [Pictilisib] (partner 1 µM)
The method, boiled down: as §1

Compound in test [4]: CN1CCN(CC1)C2=CC(=C(C=C2)NC3=NC(=C(S3)C(=O)C4=C(C=CC=C4Cl)Cl)N)OC [XMD14-99] + CC(C)C[C@H](NC(=O)[C@H](Cc1ccccc1)NC(=O)c1cnccn1)B(O)O [Bortezomib] (partner 0.002 µM)
The method, boiled down: as §1

For the cell line NCI-H358, the relative viability in test [1] (first compound 0.08 µM) turned out to be 0.603; in test [1] (first compound 0.8 µM), 0.773; in test [1] (first compound 2.53 µM) it was 0.585; in test [1] (first compound 8 µM) it was 0.312; in test [2] (first compound 0.08 µM), 0.138; in test [2] (first compound 0.253 µM), 0.142. Also, the relative viability came out at 0.139 in test [2] (first compound 0.8 µM); 0.116 in test [2] (first compound 2.53 µM); 0.142 in test [2] (first compound 8 µM); 0.327 in test [3] (first compound 0.08 µM); 0.301 in test [3] (first compound 0.8 µM); 0.229 in test [3] (first compound 2.53 µM). The relative viability in test [3] (first compound 8 µM) was found to be 0.176.
Consider NCI-H522, for which the relative viability in test [1] (first compound 0.08 µM) turned out to be 0.586; in test [1] (first compound 0.8 µM), 0.808; in test [1] (first compound 2.53 µM) it was 0.594; in test [1] (first compound 8 µM) it was 0.557; in test [2] (first compound 0.08 µM), 0.828; in test [2] (first compound 0.253 µM), 0.774. The relative viability in test [2] (first compound 0.8 µM) stood at 0.911; in test [2] (first compound 2.53 µM), 0.78; in test [2] (first compound 8 µM) it was 0.717.
As for NCI-H1299, the relative viability in test [4] (first compound 0.08 µM) was determined as 1.09; in test [4] (first compound 0.8 µM) it was 1; in test [4] (first compound 2.53 µM), 0.944; in test [4] (first compound 8 µM) it was 0.83; in test [1] (first compound 0.08 µM) it was 0.929; in test [1] (first compound 0.8 µM), 0.969. Also, the relative viability in test [1] (first compound 2.53 µM) amounted to 0.935; in test [1] (first compound 8 µM), 0.742; in test [3] (first compound 0.08 µM), 0.668; in test [3] (first compound 0.8 µM) it was 0.637; in test [3] (first compound 2.53 µM) it was 0.623; in test [3] (first compound 8 µM), 0.505.
In the case of NCI-H1395, the relative viability in test [1] (first compound 0.08 µM) was determined as 0.475; in test [1] (first compound 0.8 µM) it was 0.472; in test [1] (first compound 2.53 µM) it was 0.47; in test [1] (first compound 8 µM) it was 0.364; in test [2] (first compound 0.08 µM) it was 0.453; in test [2] (first compound 0.253 µM), 0.373. The relative viability was determined as 0.36 in test [2] (first compound 0.8 µM); 0.38 in test [2] (first compound 2.53 µM); 0.356 in test [2] (first compound 8 µM); 0.626 in test [3] (first compound 0.08 µM); 0.67 in test [3] (first compound 0.8 µM); 0.585 in test [3] (first compound 2.53 µM). The relative viability in test [3] (first compound 8 µM) was determined as 0.535.
On to NCI-H1563, for which the relative viability in test [4] (first compound 0.08 µM) came to 0.885; in test [4] (first compound 0.8 µM) it was 1.07; in test [4] (first compound 2.53 µM), 0.85; in test [4] (first compound 8 µM) it was 0.686; in test [2] (first compound 0.08 µM), 0.465; in test [2] (first compound 0.253 µM), 0.433. The relative viability in test [2] (first compound 0.8 µM) amounted to 0.421; in test [2] (first compound 2.53 µM), 0.447; in test [2] (first compound 8 µM), 0.395; in test [3] (first compound 0.08 µM), 0.683; in test [3] (first compound 0.8 µM), 0.632; in test [3] (first compound 2.53 µM), 0.666. For the same cell line, the relative viability in test [3] (first compound 8 µM) was determined as 0.568.
Turning to NCI-H1648, the relative viability in test [1] (first compound 0.08 µM) stood at 0.95; in test [1] (first compound 0.8 µM), 0.433; in test [1] (first compound 2.53 µM) it was 0.654; in test [1] (first compound 8 µM), 0.316.
NCI-H1703: the relative viability in test [4] (first compound 0.08 µM) was found to be 0.334; in test [4] (first compound 0.8 µM) it was 0.235; in test [4] (first compound 2.53 µM), 0.268; in test [4] (first compound 8 µM) it was 0.211; in test [1] (first compound 0.08 µM), 0.492; in test [1] (first compound 0.8 µM), 0.456. Moreover, the relative viability is 0.622 in test [1] (first compound 2.53 µM); 0.269 in test [1] (first compound 8 µM); 0.276 in test [3] (first compound 0.08 µM); 0.269 in test [3] (first compound 0.8 µM); 0.27 in test [3] (first compound 2.53 µM); 0.22 in test [3] (first compound 8 µM).
As to NCI-H1793, the relative viability in test [1] (first compound 0.08 µM) came out at 0.818; in test [1] (first compound 0.8 µM), 0.915; in test [1] (first compound 2.53 µM) it was 0.782; in test [1] (first compound 8 µM) it was 0.622; in test [2] (first compound 0.08 µM), 0.333; in test [2] (first compound 0.253 µM), 0.347. Also, the relative viability stood at 0.358 in test [2] (first compound 0.8 µM); 0.427 in test [2] (first compound 2.53 µM); 0.298 in test [2] (first compound 8 µM); 0.423 in test [3] (first compound 0.08 µM); 0.289 in test [3] (first compound 0.8 µM); 0.368 in test [3] (first compound 2.53 µM). The relative viability in test [3] (first compound 8 µM) came to 0.333.
Turning to NCI-H1944, the relative viability in test [1] (first compound 0.08 µM) was 0.448; in test [1] (first compound 0.8 µM) it was 0.404; in test [1] (first compound 2.53 µM), 0.397; in test [1] (first compound 8 µM), 0.283; in test [2] (first compound 0.08 µM), 0.196; in test [2] (first compound 0.253 µM), 0.178. Further, the relative viability in test [2] (first compound 0.8 µM) is 0.175; in test [2] (first compound 2.53 µM), 0.193; in test [2] (first compound 8 µM) it was 0.16; in test [3] (first compound 0.08 µM), 0.325; in test [3] (first compound 0.8 µM) it was 0.335; in test [3] (first compound 2.53 µM), 0.337. In test [3] (first compound 8 µM), the relative viability was 0.269.
As to NCI-H2170, the relative viability in test [1] (first compound 0.08 µM) turned out to be 0.543; in test [1] (first compound 0.8 µM), 0.565; in test [1] (first compound 2.53 µM), 0.537; in test [1] (first compound 8 µM), 0.466; in test [2] (first compound 0.08 µM), 0.615; in test [2] (first compound 0.253 µM), 0.542. In addition, the relative viability was found to be 0.478 in test [2] (first compound 0.8 µM); 0.485 in test [2] (first compound 2.53 µM); 0.406 in test [2] (first compound 8 µM); 0.311 in test [3] (first compound 0.08 µM); 0.355 in test [3] (first compound 0.8 µM); 0.273 in test [3] (first compound 2.53 µM). For the same cell line, in test [3] (first compound 8 µM), the relative viability came to 0.28.
For NCI-H2342, the relative viability in test [1] (first compound 0.08 µM) is 0.548; in test [1] (first compound 0.8 µM) it was 0.459; in test [1] (first compound 2.53 µM) it was 0.484; in test [1] (first compound 8 µM) it was 0.409; in test [2] (first compound 0.08 µM) it was 0.284; in test [2] (first compound 0.253 µM) it was 0.354. In addition, the relative viability is 0.28 in test [2] (first compound 0.8 µM), 0.3 in test [2] (first compound 2.53 µM) and 0.267 in test [2] (first compound 8 µM).
On to SK-MES-1, for which the relative viability amounted to 0.658 in test [1] (first compound 0.08 µM); 0.689 in test [1] (first compound 0.8 µM); 0.576 in test [1] (first compound 2.53 µM); 0.32 in test [1] (first compound 8 µM); 0.336 in test [2] (first compound 0.08 µM); 0.336 in test [2] (first compound 0.253 µM). Besides, the relative viability in test [2] (first compound 0.8 µM) was determined as 0.284; in test [2] (first compound 2.53 µM), 0.341; in test [2] (first compound 8 µM) it was 0.306; in test [3] (first compound 0.08 µM), 0.407; in test [3] (first compound 0.8 µM), 0.327; in test [3] (first compound 2.53 µM), 0.349. In addition, in test [3] (first compound 8 µM), the relative viability came out at 0.247.
For the cell line SW 900, the relative viability in test [1] (first compound 0.08 µM) was found to be 0.831; in test [1] (first compound 0.8 µM), 0.845; in test [1] (first compound 2.53 µM), 0.766; in test [1] (first compound 8 µM) it was 0.525; in test [2] (first compound 0.08 µM), 0.456; in test [2] (first compound 0.253 µM) it was 0.693. In addition, the relative viability in test [2] (first compound 0.8 µM) is 0.427; in test [2] (first compound 2.53 µM), 0.547; in test [2] (first compound 8 µM), 0.367.
